Source: PubChem BioAssay (NCI)
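Interpolation was linear, between the two tested concentrations surrounding the appropriate level; five concentrations were tested over 48 hours in 96-well plates. The concentration for 50% growth inhibition is given as GI50. TGI denotes the concentration required for complete inhibition of growth.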

What was measured:
Test in all cases: NCI-60 cell line screen, 48 h
NCI/ADR-RES ovarian = test system: NCI/ADR-RES ovarian
OVCAR-4 ovarian = test system: OVCAR-4 ovarian
RPMI-8226 leukemia = test system: RPMI-8226 leukemia
HT29 colon = test system: HT29 colon
HCC-2998 colon = test system: HCC-2998 colon
KM12 colon = test system: KM12 colon
ACHN renal = test system: ACHN renal
HCT-15 colon = test system: HCT-15 colon
CAKI-1 renal = test system: CAKI-1 renal
UACC-257 melanoma = test system: UACC-257 melanoma
MDA-MB-231 breast = test system: MDA-MB-231 breast
NCI-H460 lung = test system: NCI-H460 lung
SK-MEL-28 melanoma = test system: SK-MEL-28 melanoma
HOP-92 NSCLC = test system: HOP-92 NSCLC
SK-OV-3 ovarian = test system: SK-OV-3 ovarian
MDA-MB-435 = test system: MDA-MB-435
T-47D breast = test system: T-47D breast
K-562 leukemia = test system: K-562 leukemia
SK-MEL-2 melanoma = test system: SK-MEL-2 melanoma
NCI-H226 lung = test system: NCI-H226 lung
IGROV1 ovarian = test system: IGROV1 ovarian
CCRF-CEM leukemia = test system: CCRF-CEM leukemia
SK-MEL-5 melanoma = test system: SK-MEL-5 melanoma
OVCAR-8 ovarian = test system: OVCAR-8 ovarian
HCT-116 colon = test system: HCT-116 colon
SN12C renal = test system: SN12C renal
EKVX NSCLC = test system: EKVX NSCLC
HOP-62 NSCLC = test system: HOP-62 NSCLC
LOX IMVI melanoma = test system: LOX IMVI melanoma
NCI-H23 lung = test system: NCI-H23 lung
UO-31 renal = test system: UO-31 renal
HS 578T breast = test system: HS 578T breast
HL-60(TB) leukemia = test system: HL-60(TB) leukemia
PC-3 prostate = test system: PC-3 prostate
MCF7 breast = test system: MCF7 breast
A549 NSCLC = test system: A549 NSCLC
SW-620 colon = test system: SW-620 colon
U251 CNS = test system: U251 CNS
SNB-75 CNS = test system: SNB-75 CNS
SR leukemia = test system: SR leukemia
OVCAR-5 ovarian = test system: OVCAR-5 ovarian
COLO 205 colon = test system: COLO 205 colon
M14 melanoma = test system: M14 melanoma
MOLT-4 leukemia = test system: MOLT-4 leukemia
SF-268 CNS = test system: SF-268 CNS
A498 renal = test system: A498 renal
OVCAR-3 ovarian = test system: OVCAR-3 ovarian
SNB-19 CNS = test system: SNB-19 CNS
SF-295 CNS = test system: SF-295 CNS
BT-549 breast = test system: BT-549 breast
786-0 renal = test system: 786-0 renal
RXF 393 renal = test system: RXF 393 renal
SF-539 CNS = test system: SF-539 CNS
MALME-3M melanoma = test system: MALME-3M melanoma
TK-10 renal = test system: TK-10 renal
NCI-H522 lung = test system: NCI-H522 lung
UACC-62 melanoma = test system: UACC-62 melanoma
DU-145 prostate = test system: DU-145 prostate

Molecule `CN(C)CCCOc1ccccc1NC1=C(Cl)C(=O)C(Nc2ccccc2OCCCN(C)C)=C(Cl)C1=O` has a GI50 (NCI/ADR-RES ovarian) of 3290 nM, a TGI (NCI/ADR-RES ovarian) of 12700 nM and a GI50 (OVCAR-4 ovarian) of 136 nM. It also gave a TGI (OVCAR-4 ovarian) of 265 nM, a GI50 (RPMI-8226 leukemia) of 2010 nM and a TGI (RPMI-8226 leukemia) of 5070 nM. The GI50 (HT29 colon) was 253 nM, the TGI (HT29 colon) was 584 nM and the GI50 (HCC-2998 colon) was 604 nM. The TGI (HCC-2998 colon) was 1310 nM, the GI50 (KM12 colon) was 762 nM and the TGI (KM12 colon) was 2200 nM. For the same molecule, the GI50 (ACHN renal) was 941 nM, the TGI (ACHN renal) was 2130 nM and the GI50 (HCT-15 colon) was 749 nM. It also gave a TGI (HCT-15 colon) of 2180 nM, a GI50 (CAKI-1 renal) of 1070 nM and a TGI (CAKI-1 renal) of 2270 nM. It also gave a GI50 (UACC-257 melanoma) of 1170 nM, a TGI (UACC-257 melanoma) of 2690 nM and a GI50 (MDA-MB-231 breast) of 511 nM. It also gave a TGI (MDA-MB-231 breast) of 1400 nM, a GI50 (NCI-H460 lung) of 1320 nM and a TGI (NCI-H460 lung) of 2850 nM. It also gave a GI50 (SK-MEL-28 melanoma) of 1720 nM, a TGI (SK-MEL-28 melanoma) of 3130 nM and a GI50 (HOP-92 NSCLC) of 1330 nM. For the same molecule, the TGI (HOP-92 NSCLC) was 2820 nM, the GI50 (SK-OV-3 ovarian) was 1660 nM and the TGI (SK-OV-3 ovarian) was 3020 nM. For the same molecule, the GI50 (MDA-MB-435) was 636 nM, the TGI (MDA-MB-435) was 1440 nM and the GI50 (T-47D breast) was 209 nM. The TGI (T-47D breast) was 591 nM, the GI50 (K-562 leukemia) was 274 nM and the TGI (K-562 leukemia) was 793 nM. It also gave a GI50 (SK-MEL-2 melanoma) of 1830 nM, a TGI (SK-MEL-2 melanoma) of 3580 nM and a GI50 (NCI-H226 lung) of 1980 nM. For the same molecule, the TGI (NCI-H226 lung) was 4220 nM, the GI50 (IGROV1 ovarian) was 355 nM and the TGI (IGROV1 ovarian) was 969 nM. For the same molecule, the GI50 (CCRF-CEM leukemia) was 262 nM, the TGI (CCRF-CEM leukemia) was 1300 nM and the GI50 (SK-MEL-5 melanoma) was 1350 nM. It also gave a TGI (SK-MEL-5 melanoma) of 2650 nM, a GI50 (OVCAR-8 ovarian) of 301 nM and a TGI (OVCAR-8 ovarian) of 900 nM. The GI50 (HCT-116 colon) was 183 nM, the TGI (HCT-116 colon) was 356 nM and the GI50 (SN12C renal) was 165 nM. It also gave a TGI (SN12C renal) of 319 nM, a GI50 (EKVX NSCLC) of 693 nM and a TGI (EKVX NSCLC) of 1970 nM. The GI50 (HOP-62 NSCLC) was 1660 nM, the TGI (HOP-62 NSCLC) was 3310 nM and the GI50 (LOX IMVI melanoma) was 180 nM. The TGI (LOX IMVI melanoma) was 355 nM, the GI50 (NCI-H23 lung) was 570 nM and the TGI (NCI-H23 lung) was 1380 nM. It also gave a GI50 (UO-31 renal) of 1210 nM, a TGI (UO-31 renal) of 2460 nM and a GI50 (HS 578T breast) of 1830 nM. The TGI (HS 578T breast) was 5460 nM, the GI50 (HL-60(TB) leukemia) was 244 nM and the TGI (HL-60(TB) leukemia) was 656 nM. The GI50 (PC-3 prostate) was 696 nM, the TGI (PC-3 prostate) was 2190 nM and the GI50 (MCF7 breast) was 175 nM. It also gave a TGI (MCF7 breast) of 398 nM, a GI50 (A549 NSCLC) of 1510 nM and a TGI (A549 NSCLC) of 2940 nM. For the same molecule, the GI50 (SW-620 colon) was 207 nM, the TGI (SW-620 colon) was 415 nM and the GI50 (U251 CNS) was 611 nM. The TGI (U251 CNS) was 1300 nM, the GI50 (SNB-75 CNS) was 1620 nM and the TGI (SNB-75 CNS) was 3020 nM. It also gave a GI50 (SR leukemia) of 837 nM, a TGI (SR leukemia) of 5470 nM and a GI50 (OVCAR-5 ovarian) of 1400 nM. For the same molecule, the TGI (OVCAR-5 ovarian) was 2840 nM, the GI50 (COLO 205 colon) was 194 nM and the TGI (COLO 205 colon) was 399 nM. For the same molecule, the GI50 (M14 melanoma) was 1600 nM, the TGI (M14 melanoma) was 3160 nM and the GI50 (MOLT-4 leukemia) was 223 nM. The TGI (MOLT-4 leukemia) was 578 nM, the GI50 (SF-268 CNS) was 1030 nM and the TGI (SF-268 CNS) was 2610 nM. The GI50 (A498 renal) was 1840 nM, the TGI (A498 renal) was 5600 nM and the GI50 (OVCAR-3 ovarian) was 172 nM. It also gave a TGI (OVCAR-3 ovarian) of 319 nM, a GI50 (SNB-19 CNS) of 1570 nM and a TGI (SNB-19 CNS) of 3020 nM. The GI50 (SF-295 CNS) was 1530 nM, the TGI (SF-295 CNS) was 2900 nM and the GI50 (BT-549 breast) was 1620 nM. For the same molecule, the TGI (BT-549 breast) was 2990 nM, the GI50 (786-0 renal) was 661 nM and the TGI (786-0 renal) was 1910 nM. The GI50 (RXF 393 renal) was 1170 nM, the TGI (RXF 393 renal) was 2430 nM and the GI50 (SF-539 CNS) was 1660 nM. The TGI (SF-539 CNS) was 3040 nM, the GI50 (MALME-3M melanoma) was 923 nM and the TGI (MALME-3M melanoma) was 2430 nM. It also gave a GI50 (TK-10 renal) of 1930 nM, a TGI (TK-10 renal) of 3360 nM and a GI50 (NCI-H522 lung) of 170 nM. The TGI (NCI-H522 lung) was 383 nM, the GI50 (UACC-62 melanoma) was 1580 nM and the TGI (UACC-62 melanoma) was 3050 nM. The GI50 (DU-145 prostate) was 709 nM and the TGI (DU-145 prostate) was 1770 nM.
